Here are results for 7 compounds from US7795255B2, “Rigidified compounds for modulating heparanase activity” (InSight Biopharmaceuticals Ltd., priority 2005, dated 2010).

Experiment [1] addresses T1, vascular endothelial growth factor (VEGF) (Homo sapiens, UniProt P15692).
T1 sequence (P15692 27-191 isoform P15692-4): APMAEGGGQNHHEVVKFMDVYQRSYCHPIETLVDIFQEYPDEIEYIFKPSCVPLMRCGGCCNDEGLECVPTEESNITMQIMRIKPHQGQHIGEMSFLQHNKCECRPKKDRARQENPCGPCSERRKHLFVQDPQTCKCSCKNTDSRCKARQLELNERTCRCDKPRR
As to the kind of experiment: ELISA for determination of binding of VEGF to heparin. The note with it: for IC50: inhibition of VEGF binding to heparin, NI = no inhibition; for inhibition of VEGF binding to heparin: inhibition towards both growth factors. The protocol: Enzyme-linked immunosorbent assay (ELISA) for determination of binding of vascular endothelial growth factor (VEGF) to heparin: 96-well microplates were coated for 2 hours. at 23-25° C. with 5 μg/ml heparin-albumin (Rimon Biotech) and blocked with 1% bovine serum albumin (BSA) in phosphate buffer (PBS) with 0.05% Tween and 0.01% thimerosal for 2 hours. VEGF was added to the plates at a concentration of 10 ng/ml and the plates were thereafter incubated for 45 minutes at 23-25° C. The amount of VEGF bound to heparin was detected using anti-VEGF monoclonal antibody (Sigma Cat. No. V4758) at a concentration of 0.26 μg/ml and secondary antibodies Sheep anti-mouse IgG linked to horseradish peroxidase (1:2000) using 3,3′,5,5′-tetramethylbenzidine (TMB, Pierce Cat. No. 34021) as a substrate for peroxidase. The plates were read at 450 nm with a reference wavelength of 630 nm using a VERSAmax plate reader. […] Percent inhibition was calculated as compared with a control pre-incubated with a solution of 1% DMSO and the results are presented in Table 3 below.

The next experiment has as its target β-FGF (Homo sapiens, UniProt P09038). The experiment in a line: ELISA for determination of binding of β-FGF to heparin. The note with it: for IC50: inhibition of β-FGF binding to heparin, NI = no inhibition; for inhibition of β-FGF binding to heparin: inhibition towards both growth factors. The protocol:
ELISA for determination of binding of β-FGF to heparin: 96-well microplates were coated for 2 hours at 23-25° C. with 5 μg/ml heparin-albumin (Rimon Biotech) and blocked with 1% BSA in PBS, with 0.05% Tween, and 0.01% thimerosal for 2 hours. β-FGF was added to the plates at a concentration of 10 ng/ml and plates were incubated for 45 minutes at 23-25° C. The amount of β-FGF bound to heparin was detected using anti-FGF monoclonal antibody (Sigma Cat. No. F6162) at a concentration of 2.5 ng/ml and secondary antibodies Sheep anti-mouse IgG linked to horseradish peroxidase (1:3000) TMB (Pierce Cat. No. 34021) was used as a substrate for peroxidase. The plates were read at 450 nm with a reference wavelength of 630 nm using a VERSAmax plate reader.

For experiment [2], the target named is T2, recombinant human pro-heparanase (H60) (Homo sapiens, UniProt Q9Y251).
T2 construct: Heparanase maturation involves the removal of the signal peptide, transforming the 65 kDa pre-pro-heparanase into a 60 kDa pro-heparanase; made in house
T2 sequence (Q9Y251 36-543): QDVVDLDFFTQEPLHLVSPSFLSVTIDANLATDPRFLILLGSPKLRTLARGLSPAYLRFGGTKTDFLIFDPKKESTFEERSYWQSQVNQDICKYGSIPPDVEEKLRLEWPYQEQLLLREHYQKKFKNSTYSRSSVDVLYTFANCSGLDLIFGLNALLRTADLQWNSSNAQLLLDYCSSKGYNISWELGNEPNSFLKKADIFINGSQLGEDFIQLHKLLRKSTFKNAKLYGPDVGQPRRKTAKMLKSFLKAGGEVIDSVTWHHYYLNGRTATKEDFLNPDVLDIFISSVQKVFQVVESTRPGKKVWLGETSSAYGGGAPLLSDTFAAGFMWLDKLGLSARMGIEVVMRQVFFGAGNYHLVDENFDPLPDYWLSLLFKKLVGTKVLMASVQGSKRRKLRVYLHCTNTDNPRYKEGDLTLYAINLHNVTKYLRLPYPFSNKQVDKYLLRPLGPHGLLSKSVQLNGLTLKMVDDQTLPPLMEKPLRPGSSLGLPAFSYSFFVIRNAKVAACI
As to the kind of experiment: Pro-heparanase (H60) activation in a cell-based assay. The note with it: inhibition of pro-heparanase activation in CHO cells; NI = no inhibition. The protocol: Pro-heparanase (H60) activation in a cell-based assay: Chinese hamster ovary (CHO) cells were grown in complete F12 medium supplemented with 10% fetal calf serum (FCS). […] The plates were incubated for 24 hours in a 37° C. humidified incubator with 5% CO2. […] The plates were further incubated for additional 4 hours. The pro-heparanase was allowed to internalize by the cells and further processed to generate the active 53 kDa heparanase. At the end of the incubation, the cells were lysed by three consecutive cycles of freezing and thawing in a −80° C. freezer and a 37° C. shaker.
The rigidified compounds described herein were tested for inhibition of pro-heparanase activation in the cell-based assay described above.

Chain of β-FGF (P09038 143-288): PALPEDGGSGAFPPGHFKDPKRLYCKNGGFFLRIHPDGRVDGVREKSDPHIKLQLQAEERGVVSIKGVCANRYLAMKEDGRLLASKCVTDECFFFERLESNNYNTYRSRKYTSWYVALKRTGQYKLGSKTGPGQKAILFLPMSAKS

One may read the IC50 as the midpoint of a concentration-inhibition curve. Take `CN(C)CCCNC(=O)CC(C)(C)CN1C(=O)c2cc3oc(-c4ccc(Cl)cc4)cc3n2C1=S` [Compound 15, 4-[2-(4-Chloro-phenyl)-6-oxo-4-thioxo-6H-1-oxa-3b,5-diaza-cyclopenta[a]pentalen-5-yl]-N-(3-dimethylamino-propyl)-3,3-dimethyl-butyramide]: the IC50 in experiment [1] came to 180 nM; at β-FGF, 440 nM; in experiment [2], 160 nM. For the same compound, the “inhibition of VEGF binding to heparin” value in experiment [1] was “sub-micromolar”. At β-FGF, the “inhibition of β-FGF binding to heparin” value was “sub-micromolar”.
As for `CC(C)(CC(=O)N1CCOCC1)CN1C(=O)c2cc3oc(-c4ccc(Cl)cc4)cc3n2C1=S` [Compound 17, 2-(4-Chloro-phenyl)-5-(2,2-dimethyl-4-morpholin-4-yl-4-oxo-butyl)-4-thioxo-4,5-dihydro-1-oxa-3b,5-diaza-cyclopenta[a]pentalen-6-one], in experiment [1], the IC50 was found to be 420 nM and the “inhibition of VEGF binding to heparin” value was “sub-micromolar”. In addition, on β-FGF, the IC50 amounted to 870 nM and the “inhibition of β-FGF binding to heparin” value is “sub-micromolar”. The IC50 in experiment [2] is 150 nM.
`CC(C)(CC(=O)NCC(=O)O)CN1C(=O)c2cc3oc(-c4ccc(Cl)cc4)cc3n2C1=S` [Compound 18, {4-[2-(4-Chloro-phenyl)-6-oxo-4-thioxo-6H-1-oxa-3b,5-diaza-cyclopenta[a]pentalen-5-yl]-3,3-dimethyl-butyrylamino}-acetic acid]: the figures for the 50% inhibitory concentration (IC50) (in experiment [1]; at β-FGF; in experiment [2]) were 2000 nM, 1400 nM and 460 nM, respectively.
As to `CC(C)(CC(=O)NCC(=O)OC(C)(C)C)CN1C(=O)c2cc3oc(-c4ccc(Cl)cc4)cc3n2C1=S` [Compound 19, {4-[2-(4-Chloro-phenyl)-6-oxo-4-thioxo-6H-1-oxa-3b,5-diaza-cyclopenta[a]pentalen-5-yl]-3,3-dimethyl-butyrylamino}-acetic acid tert-butyl ester], the IC50 in experiment [1] is 510 nM; on β-FGF it was 500 nM; in experiment [2], 420 nM. Also, in experiment [1], the “inhibition of VEGF binding to heparin” value is “sub-micromolar”. Further, the “inhibition of β-FGF binding to heparin” value at β-FGF was “sub-micromolar”.
For `COC(=O)CN(C)C(=O)CC(C)(C)CN1C(=O)c2cc3oc(-c4ccc(Cl)cc4)cc3n2C1=S` [Compound 20, ({4-[2-(4-Chloro-phenyl)-6-oxo-4-thioxo-6H-1-oxa-3b,5-diaza-cyclopenta[a]pentalen-5-yl]-3,3-dimethyl-butyryl}-methyl-amino)-acetic acid methyl ester], in experiment [1], the IC50 was found to be 420 nM and the “inhibition of VEGF binding to heparin” value is on record as “sub-micromolar”. Further, on β-FGF, the IC50 was found to be 350 nM and the “inhibition of β-FGF binding to heparin” value is recorded as “sub-micromolar”. The IC50 in experiment [2] was 320 nM.
Turning to `CCN(CC)C(=O)CC1(CN2C(=O)c3cc4oc(-c5ccc(Cl)cc5)cc4n3C2=S)CCCCC1` [Compound 24, 2-{1-[2-(4-Chloro-phenyl)-6-oxo-4-thioxo-6H-1-oxa-3b,5-diaza-cyclopenta[a]pentalen-5-ylmethyl]-cyclohexyl}-N,N-diethyl-acetamide], in experiment [1], the concentration for half-maximal inhibition (IC50) was 90 nM and the “inhibition of VEGF binding to heparin” value is recorded as “sub-micromolar”. For the same compound, at β-FGF, the IC50 came to 150 nM and the “inhibition of β-FGF binding to heparin” value is listed as “sub-micromolar”. For the same compound, the IC50 in experiment [2] came out at 1500 nM.
On to `CCOC(=O)CCCN1C(=O)c2cc3oc(-c4cccc(C(F)(F)F)c4)cc3n2C1=S` [Compound 25, ethyl 4-[6-oxo-4-thioxo-2-(3-trifluoromethyl-phenyl)-6H-1-oxa-3b,5-diaza-cyclopenta[a]pentalen-5-yl]-butyric acid ethyl ester], for which the IC50 is 140 nM in experiment [1], 120 nM at β-FGF and 2700 nM in experiment [2].
